Key:
A. japonicus = test: MIC by disk diffusion method, A. japonicus; format: cell-based, Aspergillus japonicus; details: disks of 50, 25, 12.5, 6.25 and 3.12 μg, 42-120 hrs at room temperature
Excerpt: (§1) Czapek Malt Agar (Himedia laboratories Ltd.) was used for culturing Tricholphytos mentagrophytes T. tonsurans, T. violaceum, Aspergillus fresnil and A niger, A. japonicus. Mucological Agar (Himedia Laboratories Ltd was used for Cryptocaccus neoformans and Candida sp.
(§2) Pathogeiic fungal strains of yeast and filamentous fungi (Identified and gifted by Dr. Savio from Goa Medical College, Bamoblim) were used for the test. Strains of Aspergillus were isolated from the infected wheat bread with sterile needles; fungal material was surface sterilized using 0.5% sodium hypochlorite for 2-3 minutes and then washed with small brush in sterile distilled water. This Aspergillus species was described earlier as food spoilage (Bhosale et. Al., 1999). […]
(§3) Innocula were adjusted to 50 μl of Cryptococcus neoformans, Candida sp., Trichophyrou tonsurans, T. violaceum and T. mentagrophytes, Aspergillus fresenil, A. niger, A. japonicus and spread on the appropriate plates, excess moisture was allowed to be absorbed for 10 minutes before applying on disks. […] Test plates were incubated for 42-120 hrs. at room temperature to obtain maximum growth and MIC was determined as lowest concentration of compound and antifungal agents resulting in a cleas zone of growth inhibition. […]

T. violaceum = test: MIC by disk diffusion method, T. violaceum; format: cell-based, Trichophyton violaceum; details: disks of 50, 25, 12.5, 6.25 and 3.12 μg, 42-120 hrs at room temperature
Excerpt: as §1, §2, §3

[1] = tested on: Trichophyton mentagrophytes; test: MIC by disk diffusion method, Trichophyton mentagrophytes; format: cell-based; details: disks of 50, 25, 12.5, 6.25 and 3.12 μg, 42-120 hrs at room temperature
Excerpt: as §1, §2, §3

T. tonsurans = test: MIC by disk diffusion method, T. tonsurans; format: cell-based, Trichophyton tonsurans; details: disks of 50, 25, 12.5, 6.25 and 3.12 μg, 42-120 hrs at room temperature
Excerpt: as §1, §2, §3

Aspergillus fresenii = test: MIC by disk diffusion method, Aspergillus fresenii; format: cell-based; details: disks of 50, 25, 12.5, 6.25 and 3.12 μg, 42-120 hrs at room temperature
Excerpt: as §1, §2, §3

Fusarium sp. = test: MIC by disk diffusion method, Fusarium sp.; format: cell-based; details: disks of 50, 25, 12.5, 6.25 and 3.12 μg, 42-120 hrs at room temperature
Candida sp. = test: MIC by disk diffusion method, Candida sp.; format: cell-based; details: disks of 50, 25, 12.5, 6.25 and 3.12 μg, 42-120 hrs at room temperature
Excerpt: as §1, §2, §3

Cryptococcus neoformans = test: MIC by disk diffusion method, Cryptococcus neoformans; format: cell-based; details: Cryoticiecus Neoformans; disks of 50, 25, 12.5, 6.25 and 3.12 μg; 42-120 hrs at room temperature
Excerpt: as §1, §2, §3

A. niger = test: MIC by disk diffusion method, A. niger; format: cell-based, Aspergillus niger; details: disks of 50, 25, 12.5, 6.25 and 3.12 μg, 42-120 hrs at room temperature
Excerpt: as §1, §2, §3

Structure (SMILES)	MIC, Disk Diffusion Method (A. japonicus)	MIC, Disk Diffusion Method (T. violaceum)	MIC, Disk Diffusion Method [1]	MIC, Disk Diffusion Method (T. tonsurans)	MIC, Disk Diffusion Method (Aspergillus fresenii)	MIC, Disk Diffusion Method (Fusarium sp.)	MIC, Disk Diffusion Method (Candida sp.)	MIC, Disk Diffusion Method (Cryptococcus neoformans)	MIC, Disk Diffusion Method (A. niger)
C[C@@H]1[C@H](O)[C@@H](C)/C=C/C=C/C=C/C=C/C=C/C=C/C=C/[C@H](O[C@@H]2O[C@H](C)[C@@H](O)[C@H](N)[C@@H]2O)C[C@@H]2O[C@](O)(C[C@@H](O)C[C@@H](O)[C@H](O)CC[C@@H](O)C[C@@H](O)CC(=O)O[C@H]1C)C[C@H](O)[C@H]2C(=O)O [Amphotericin B]	6.25-12.5 μg/disc^−1	6.25-12.5 μg/disc^−1	3.12-6.25 μg/disc^−1	6.25-12.5 μg/disc^−1	6.25-12.5 μg/disc^−1	12.5-25 μg/disc^−1	3.12-6.25 μg/disc^−1	3.12-6.25 μg/disc^−1	6.25-12.5 μg/disc^−1
C[C@@H]1[C@H](O)[C@@H](C)/C=C/C=C/CC/C=C/C=C/C=C/C=C/C(O[C@H]2O[C@H](C)[C@@H](O)[C@H](N)[C@@H]2O)CC2O[C@](O)(CC(O)C(O)CCC(O)CC(O)CC(O)CC(=O)O[C@H]1C)CC(O)C2C(=O)O (some centres unmarked) [Nystatin]	–	–	–	–	–	–	3.12-6.25 μg/disc^−1	3.12-6.25 μg/disc^−1	–

Reference: patent US7335495B2, “Process for the isolation of pharmaceutical compound cyclosporin a from fungus fusarium nivale” (Council of Scientific and Industrial Research, priority 2002, dated 2008)
